Experimental data taken from patent US20260098025A1, “DIMERIC COMPOUNDS AS INHIBITORS OF GLYCOGEN SYNTHASE 1 (GYS1) AND METHODS OF USE THEREOF” (Maze Therapeutics, Inc., priority 2022, published 2026).

target: T1, recombinant hGYS1/GN1 protein (Homo sapiens, UniProt P13807); assay: GYS1 coupled enzyme assay (PK/LDH, NADH absorbance at 340 nm); format: biochemical; details: geometric mean of at least 2 assay runs on separate days; hGYS1/GN1 50 nM, Glucose-6-Phosphate 1 mM, UDP-Glucose 0.8 mM
T1 sequence (P13807 1-737): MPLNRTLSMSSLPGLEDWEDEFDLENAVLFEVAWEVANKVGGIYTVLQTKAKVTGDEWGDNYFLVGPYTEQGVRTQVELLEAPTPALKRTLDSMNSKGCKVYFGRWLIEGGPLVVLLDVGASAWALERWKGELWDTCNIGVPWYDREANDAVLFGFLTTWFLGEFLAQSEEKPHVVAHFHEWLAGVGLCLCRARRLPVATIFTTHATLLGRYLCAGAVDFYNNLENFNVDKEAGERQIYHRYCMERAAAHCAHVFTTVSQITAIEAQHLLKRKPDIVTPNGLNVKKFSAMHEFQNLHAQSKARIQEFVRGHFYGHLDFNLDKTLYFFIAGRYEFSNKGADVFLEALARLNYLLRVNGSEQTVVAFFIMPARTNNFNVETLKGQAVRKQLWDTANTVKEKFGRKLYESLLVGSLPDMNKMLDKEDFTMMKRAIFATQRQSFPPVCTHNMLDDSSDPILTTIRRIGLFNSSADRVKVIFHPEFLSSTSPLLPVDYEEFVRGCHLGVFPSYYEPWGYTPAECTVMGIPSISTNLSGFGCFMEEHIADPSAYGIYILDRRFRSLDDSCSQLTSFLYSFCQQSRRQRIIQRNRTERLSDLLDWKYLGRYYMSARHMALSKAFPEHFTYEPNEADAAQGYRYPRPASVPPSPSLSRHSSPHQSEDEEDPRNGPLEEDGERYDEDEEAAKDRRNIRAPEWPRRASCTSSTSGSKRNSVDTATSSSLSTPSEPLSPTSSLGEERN
T1 sequence (P46976 1-350 partner): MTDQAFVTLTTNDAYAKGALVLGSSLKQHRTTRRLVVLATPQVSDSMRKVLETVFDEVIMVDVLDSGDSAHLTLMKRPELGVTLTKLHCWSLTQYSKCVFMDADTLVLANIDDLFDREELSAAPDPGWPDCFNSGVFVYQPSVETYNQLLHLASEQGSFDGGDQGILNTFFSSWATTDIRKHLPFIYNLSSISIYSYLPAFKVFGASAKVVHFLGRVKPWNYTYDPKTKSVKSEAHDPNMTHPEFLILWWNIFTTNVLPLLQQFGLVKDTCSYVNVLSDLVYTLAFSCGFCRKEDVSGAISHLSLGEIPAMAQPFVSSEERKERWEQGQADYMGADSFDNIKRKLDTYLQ
Source text: The GYS1 coupled enzyme assay is a kinetic biochemical assay that indirectly quantifies the rate of glycogen synthesis by coupling the conversion of GYS1 substrate UDP-glucose into UDP with downstream enzymatic reactions. UDP is released from UDP-glucose as glucose monomers are linked into the growing glycogen strand by GYS1. The coupled assay then proceeds with pyruvate kinase utilizing UDP and phospho(enol)pyruvate (PEP) to form pyruvate. Lactate dehydrogenase then converts pyruvate and NADH into lactate and NAD+. Oxidation of NADH to NAD+ can be measured continuously with a plate reader by quantifying the decrease in NADH absorbance at 340 nm over time.
Compounds that inhibit the hGYS1 enzyme and, subsequently, the downstream conversion of NADH to NAD+, were tested using assay ready plates (black, clear bottom 384 well plates) in a final DMSO reaction volume of 2.5% DMSO. The Assay Buffer contained 50 mM Tris pH 7.5, 2 mM MgCl2, and 100 mM KCl. Fresh stocks of BSA at a final concentration of 0.02% and TCEP at 1 mM were added before splitting buffer into hGYS1 buffer and substrate buffer. To the hGYS1 buffer, rabbit liver glycogen was added at a final concentration of 0.2% glycogen. Glucose-6-Phosphate was added at 1 mM, recombinant hGYS1/GN1 protein was added at 50 nM to the substrate buffer, phosphoenolpyruvate (PEP) was added at 2 mM, UDP-Glucose was added at 0.8 mM, NADH) was added at 0.6 mM, and Pyruvate Kinase/Lactate Dehydrogenase was added at 20 units/mL. The reaction was initiated by mixing hGYS1 buffer and substrate buffer at a 1:1 ratio. Both buffers were plated using a liquid dispensing device with hGYS1 buffer plated first followed by the substrate buffer. Plates were spun briefly to eliminate air bubbles and are immediately read in continuous mode at an absorbance of 340 nm, for 10 time points in one-minute increments, for a total of 10 minutes. The slope from these 10 time points was normalized to the positive and negative control wells. The duplicate % inhibition values are then averaged and fit to a Hill equation for dose response according to the Levenberg-Marquardt algorithm with the Hill equation maximum set to 100 and the minimum set to 0.
The results are shown in Table 2 below, which reports the IC50 of each compound. Unless otherwise specified, IC50 values are reported as the geometric mean of at least 2 assay runs on separate days. Each run represents the average of a technical replicate, where each compound was assayed twice in the same plate. As shown in the table below, the compounds of the present invention are potent inhibitors of human GYS1. A superscript “#” symbol in Table 2 indicates results from a single assay run.
Note that, in Table 2, the compounds are referred to by the corresponding Compound No. in Table 1, which is also referred to in the synthetic examples.

Row | Structure (SMILES) | IC50 [nM]
1 | O=C(N[C@@H](c1ccccc1)c1ccc(C2CC2)c(F)n1)[C@@H]1C[C@@H](F)CN1C(=O)COCCOCCOCCOCC(=O)N1C[C@H](F)C[C@H]1C(=O)N[C@@H](c1ccccc1)c1ccc(C2CC2)c(F)n1 [Compound 11, (2S,2′S,4R,4′R)-1,1′-(3,6,9,12-tetraoxatetradecanedioyl)bis(N-((S)-(5-cyclopropyl-6-fluoropyridin-2-yl)(phenyl)methyl)-4-fluoropyrrolidine-2-carboxamide)] | 14.6
2 | O=C(N[C@@H](c1ccccc1)c1ccc(C2CC2)c(F)n1)[C@@H]1C[C@@H](F)CN1C(=O)Cn1cc(OCCOCCOc2cn(CC(=O)N3C[C@H](F)C[C@H]3C(=O)N[C@@H](c3ccccc3)c3ccc(C4CC4)c(F)n3)nn2)nn1 [Compound 1, (2S,2′S,4R,4′R)-1,1′-(2,2′-(((oxybis(ethane-2,1-diyl))bis(oxy))bis(1H-1,2,3-triazole-4,1-diyl))bis(acetyl))bis(N-((S)-(5-cyclopropyl-6-fluoropyridin-2-yl)(phenyl)methyl)-4-fluoropyrrolidine-2-carboxamide)] | 10.8

Compounds with a lower IC50, results first:

Row | IC50 [nM] | Structure (SMILES)
3 | 7.5 | CN(CCOCCOCCOCC(=O)N1C[C@H](F)C[C@H]1C(=O)N[C@@H](c1ccccc1)c1ccc(C2CC2)c(F)n1)CCOCCOCC(=O)N1C[C@H](F)C[C@H]1C(=O)N[C@@H](c1ccccc1)c1ccc(C2CC2)c(F)n1 [Compound 17, (2S,2′S,4R,4′R)-1,1′-(9-methyl-3,6,12,15,18-pentaoxa-9-azaicosanedioyl)bis(N-((S)-(5-cyclopropyl-6-fluoropyridin-2-yl)(phenyl)methyl)-4-fluoropyrrolidine-2-carboxamide)]
4 | 5.3 | Cc1cn(CC(=O)N2C[C@H](F)C[C@H]2C(=O)N[C@@H](c2ccccc2)c2ccc(C3CC3)c(F)n2)c(=O)n(CCOCCOCCn2c(=O)c(C)cn(CC(=O)N3C[C@H](F)C[C@H]3C(=O)N[C@@H](c3ccccc3)c3ccc(C4CC4)c(F)n3)c2=O)c1=O [Compound 15, (2S,2′S,4R,4′R)-1,1′-(2,2′-(((ethane-1,2-diylbis(oxy))bis(ethane-2,1-diyl))bis(5-methyl-2,4-dioxo-3,4-dihydropyrimidine-3,1(2H)-diyl))bis(acetyl))bis(N-((S)-(5-cyclopropyl-6-fluoropyridin-2-yl)(phenyl)methyl)-4-fluoropyrrolidine-2-carboxamide)]
5 | 4.9 | Cc1cn(CC(=O)N2C[C@H](F)C[C@H]2C(=O)N[C@@H](c2ccccc2)c2ccc(C3CC3)c(F)n2)c(=O)n(CCOCCn2c(=O)c(C)cn(CC(=O)N3C[C@H](F)C[C@H]3C(=O)N[C@@H](c3ccccc3)c3ccc(C4CC4)c(F)n3)c2=O)c1=O [Compound 14, (2S,2′S,4R,4′R)-1,1′-(2,2′-((oxybis(ethane-2,1-diyl))bis(5-methyl-2,4-dioxo-3,4-dihydropyrimidine-3,1(2H)-diyl))bis(acetyl))bis(N-((S)-(5-cyclopropyl-6-fluoropyridin-2-yl)(phenyl)methyl)-4-fluoropyrrolidine-2-carboxamide)]
